Assay results published in patent publication US9365528B2 (Southern Research Institute, priority 2011, dated 2016).
Where two headings read alike, the source gives them in different places.

Legend:
HT29 = test: Tumor cell growth inhibition, cell viability assay (Cell Titer Glo), 72 h; format: cell-based; details: Homo sapiens, HT-29
Procedure: (§1) The potency to inhibit tumor cell growth was determined by calculating IC50 values using a standard cell viability assay (Cell Titer Glo, Promega Corp,) following 72 hours of treatment. The human colon tumor cell lines, HT-29, SW480, HCT116, and Colo 741 were derived from colon adenocarcinomas, while LT97 is derived from an adenoma. Fetal human colonocytes (FHC) are representative of normal colonocytes. The lack of effect inhibiting cyclooxygenases 1 and 2 (COX-1 and -2) is also shown.

MDA-MB-231 = test: as above; details: Homo sapiens
Procedure: (§2) The enzyme activity was measured using a colorimetric assay using recombinant COX enzymes. […] The growth inhibitory activity was determined following 72 hours of treatment using a standard cell viability assay (Cell Titer Glo, Promega Corp).

PC3 = test: Tumor cell growth inhibitory activity; format: cell-based; details: Homo sapiens, PC-3
COX-2 = target: T1, COX-2 (Homo sapiens, UniProt P35354); test: COX inhibition, colorimetric assay with recombinant COX enzymes
T1 sequence (P35354 18-604): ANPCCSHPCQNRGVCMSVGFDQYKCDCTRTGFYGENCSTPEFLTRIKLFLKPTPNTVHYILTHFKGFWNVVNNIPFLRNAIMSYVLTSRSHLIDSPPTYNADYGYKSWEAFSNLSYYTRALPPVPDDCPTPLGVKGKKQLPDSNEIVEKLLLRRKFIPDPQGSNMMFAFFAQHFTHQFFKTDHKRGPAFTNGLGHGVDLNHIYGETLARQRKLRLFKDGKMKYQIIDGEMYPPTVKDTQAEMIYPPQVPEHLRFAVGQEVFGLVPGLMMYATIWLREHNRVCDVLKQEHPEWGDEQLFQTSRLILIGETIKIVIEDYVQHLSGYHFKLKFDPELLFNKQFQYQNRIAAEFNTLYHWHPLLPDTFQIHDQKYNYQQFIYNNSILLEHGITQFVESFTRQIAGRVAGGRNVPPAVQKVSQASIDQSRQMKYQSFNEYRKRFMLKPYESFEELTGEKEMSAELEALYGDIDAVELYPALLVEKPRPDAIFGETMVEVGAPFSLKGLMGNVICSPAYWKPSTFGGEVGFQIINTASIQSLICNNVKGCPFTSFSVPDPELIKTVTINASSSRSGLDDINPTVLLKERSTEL
Procedure: as §2

COX-1 = COX-1 (Homo sapiens, UniProt P23219); test: as above
Sequence of COX-1 (P23219 24-599): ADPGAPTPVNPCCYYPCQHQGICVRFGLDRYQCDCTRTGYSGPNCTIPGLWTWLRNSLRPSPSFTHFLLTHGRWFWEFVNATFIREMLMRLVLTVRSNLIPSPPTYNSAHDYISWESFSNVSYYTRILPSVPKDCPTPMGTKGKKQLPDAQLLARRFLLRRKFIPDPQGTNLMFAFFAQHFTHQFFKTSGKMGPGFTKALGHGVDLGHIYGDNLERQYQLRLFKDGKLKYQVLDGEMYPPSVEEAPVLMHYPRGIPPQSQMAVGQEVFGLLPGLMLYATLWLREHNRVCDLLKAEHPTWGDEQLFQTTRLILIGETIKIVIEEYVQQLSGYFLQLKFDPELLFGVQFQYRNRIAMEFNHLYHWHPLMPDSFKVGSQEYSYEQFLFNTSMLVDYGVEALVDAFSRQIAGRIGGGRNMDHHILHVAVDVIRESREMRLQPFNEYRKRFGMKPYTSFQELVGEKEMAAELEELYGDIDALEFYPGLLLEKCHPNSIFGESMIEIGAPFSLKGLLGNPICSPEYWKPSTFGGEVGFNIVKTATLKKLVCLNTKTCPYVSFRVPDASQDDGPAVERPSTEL
Procedure: as §2

[1] = tested on: Fetal human colonocytes (FHC); test: Cell growth inhibition, cell viability assay (Cell Titer Glo), 72 h; format: cell-based; details: Table 3, normal colonocytes, 72 hours of treatment
Procedure: as §1

SW480 = test: Tumor cell growth inhibition, cell viability assay (Cell Titer Glo), 72 h; format: cell-based; details: Homo sapiens
Procedure: as §1

LT97 = test: as above; format: cell-based; details: Homo sapiens; Table 3; adenoma; 72 hours of treatment
Procedure: as §1

HCT116 = test: as above; format: cell-based; details: Homo sapiens, HCT-116
Procedure: as §1

Colo741 = test: as above; format: cell-based; details: Homo sapiens, COLO-741; Table 3; colon adenocarcinoma; 72 hours of treatment
Procedure: as §1

SKBR3 = test: Breast tumor cell growth inhibitory activity; format: cell-based; details: Homo sapiens, SK-BR-3; Table 1, breast
MCF-7 = test: Breast tumor cell growth inhibitory activity; format: cell-based; details: Homo sapiens, MCF7; Table 1, breast
[2] = Table 1, compounds 10-13, read-out: Tumor cell growth inhibitory activity (IC50, μM) HT29
[3] = scheme table, read-out: IC50 (μM) HT29
[4] = MDA-MB-231, read-out: IC50 (μM) MDA-MB-231
[5] = MDA-MB-231, read-out: Tumor cell growth inhibitory activity (IC50, μM) MDA-MB-231 (breast)
[6] = Table 1, compounds 10-13, read-out: Tumor cell growth inhibitory activity (IC50, μM) PC3
[7] = scheme table, read-out: IC50 (μM) PC3
[8] = Table 3, colon adenocarcinoma, 72 hours of treatment, read-out: SW480 (IC50)
[9] = Table 1, colon, read-out: Colon tumor cell growth inhibitory activity (IC50, μM) HT29
[10] = Table 3, colon adenocarcinoma, 72 hours of treatment, read-out: HT29 (IC50)
[11] = Table 3, colon adenocarcinoma, 72 hours of treatment, read-out: HCT116 (IC50)
[12] = Table 1, colon, read-out: Colon tumor cell growth inhibitory activity (IC50, μM) SW480
[13] = Table 1, colon, read-out: Colon tumor cell growth inhibitory activity (IC50, μM) HCT116
[14] = MDA-MB-231, read-out: Breast tumor cell growth inhibitory activity (IC50, μM) MDA-MB-231

Structure (SMILES) | IC50 (HT29; [2]) [µM] | IC50 (HT29; [3]) [µM] | IC50 (MDA-MB-231; [4]) [µM] | IC50 (MDA-MB-231; [5]) [µM] | IC50 (PC3; [6]) [µM] | IC50 (PC3; [7]) [µM] | IC50 [1] [µM] | IC50 (SW480; [8]) [µM] | IC50 (LT97) [µM] | IC50 (HT29; [9]) [µM] | IC50 (HT29; [10]) [µM] | IC50 (HCT116; [11]) [µM] | IC50 (Colo741) [µM] | IC50 (SW480; [12]) [µM] | IC50 (HCT116; [13]) [µM] | IC50 (MDA-MB-231; [14]) [µM] | IC50 (SKBR3) [µM] | IC50 (MCF-7) [µM] | other results
CSc1ccc(/C=C2/C(C)=C(CN)c3cc(F)ccc32)cc1 [Compound 10, (Z)-(5-Fluoro-2-methyl-1-(4-(methylthio)benzylidene)-1H-inden-3-yl)methanamine] | 16 | 16 | 19.3 | 19.3 | 33.6 | 33.6 |  |  |  |  |  |  |  |  |  |  |  |  | 
CC1=C(CCNCc2ccccc2)c2cc(F)ccc2/C1=C\c1ccc(S(C)(=O)=O)cc1 [Compound 9] |  |  |  |  |  |  | 11.2 | 5.36 | 8.85 | 1.8 | 2.02 | 6.44 | 5.87 |  |  |  |  |  | IC50 (COX-2): > 100 µM; IC50 (COX-1): > 100 µM
COc1cc(/C=C2/C(C)=C(CN)c3cc(F)ccc32)cc(OC)c1OC [Compound 11, (Z)-(5-Fluoro-2-methyl-1-(3,4,5-trimethoxybenzylidene)-1H-inden-3-yl)methanamine] | 14.6 | 14.6 | 15.3 | 15.3 | 29.7 | 29.7 |  |  |  |  |  |  |  |  |  |  |  |  | 
CSc1ccc(/C=C2/C(C)=C(CN(Cc3ccncc3)Cc3ccncc3)c3cc(F)ccc32)cc1 [Compound 12, (Z)-1-(5-Fluoro-2-methyl-1-(4-(methylthio)benzylidene)-1H-inden-3-yl)-N,N-bis(pyridin-4-ylmethyl)methanamine] | 10.8 | 10.8 | 9.5 | 9.5 | 12.7 | 12.7 |  |  |  |  |  |  |  |  |  |  |  |  | 
CSc1ccc(/C=C2/C(C)=C(CC(=O)O)c3cc(F)ccc32)cc1 [Sulindac sulfide, reference compound] |  |  |  |  |  |  | > 200 | 85.2 | 37.8 |  | 73.6 | 73.3 | 150 |  |  |  |  |  | 
CSc1ccc(/C=C2/C(C)=C(CCNCc3ccccc3)c3cc(F)ccc32)cc1 [Compound 1] |  |  |  |  |  |  | 7.83 | 3.28 | 6.82 | 2.7 | 2.67 | 4.93 | 8.85 | 3.3 | 4.9 | 5.8 | 3.4 | 6.8 | IC50 (COX-2): > 200 µM; IC50 (COX-1): > 200 µM
CSc1ccc(/C=C2/C(C)=C(CCN)c3cc(F)ccc32)cc1 [Compound 4] |  |  |  |  |  |  |  |  |  | 4.1 |  |  |  | 4.1 | 4.9 | 5.5 | 3.9 | 5.9 | 
CC1=C(CCNCc2ccco2)c2cc(F)ccc2/C1=C\c1ccc([S+](C)[O-])cc1 (centres unmarked) [Compound 7] |  |  |  |  |  |  |  |  |  | 2.3 |  |  |  |  |  | 3.7 |  |  | 
CSc1ccc(/C=C2/C(C)=C(CCNCCN3CCCCC3)c3cc(F)ccc32)cc1 [Compound 3] |  |  |  |  |  |  |  |  |  | 3 |  |  |  | 5.4 | 3.8 | 5.3 | 4.8 | 6.4 | 
COc1cc(/C=C2/C(C)=C(CN(Cc3ccncc3)Cc3ccncc3)c3cc(F)ccc32)cc(OC)c1OC [Compound 13, (Z)-1-(5-Fluoro-2-methyl-1-(3,4,5-trimethoxybenzylidene)-1H-inden-3-yl)-N,N-bis(pyridin-4-ylmethyl)methanamine] | 9.83 | 9.83 | 8.21 | 8.21 | 9.09 | 9.09 |  |  |  |  |  |  |  |  |  |  |  |  | melting point: 66.4 °C
